According to publication PMC10759609, “A novel PDPN antagonist peptide CY12-RP2 inhibits melanoma growth via Wnt/β-catenin and modulates the immune cells” (Journal of Experimental & Clinical Cancer Research : CR, 2024):
Peptide text beside a SMILES is read from it.

What was measured:
A375 cells = assay: Annexin V/PI flow cytometry apoptosis, A375; type: cell-based; settings: 0, 50, 100, 200 μM, 48 h
Method: (§1) In this study, cell apoptosis was analyzed by flow cytometry using a PI/FITC-Annexin V Apoptosis Detection Kit (4A Biotech, Beijing, China). Briefly, melanoma cells were collected and washed with pre-chilled PBS, then resuspended with Annexin V staining buffer. Afterward, fluorescein isothiocyanate (FITC)-Annexin V and PI were stained for 5 min at RT, and then immediately detected using a Beckman flow cytometer. To investigate immune cell infiltration of the lung and spleen in the pulmonary metastasis mouse model, the surface and nuclear antigen staining were performed following the experimental procedure. Fluorescence-labeled mAb against CD3, CD25, CD49b, GranzymeB, CD11b, CD86, and CD206 were purchased from BioLegend (BioLegend, San Diego, CA), and CD4, CD8, and Foxp3 from Tonbo. […] Finally, the samples were measured using flow cytometry.
(§2) Fig. 3 Biopanning of PDPN antagonist peptides. […] B Immunofluorescence staining was performed to quantify the colocalization of CY12-RP2 and PDPN protein in melanoma cell lines (A375, A875). […] D Suppression efficiency of melanoma cells growth by CY12-RP2 was measured by CCK8 assay at various concentrations for 24, 48 or 72 h, respectively. […] G, H The 3D cellular spheres were treated with the set concentrations of CY12-RP2 for 5 days and cell morphology was assessed (G), relative spheroid diameter was measured (H). […]

A875 cells [1] = assay: Annexin V/PI flow cytometry apoptosis, A875; type: cell-based; settings: 0, 50, 100, 200 μM, 48 h
Method: as §1, §2

A875 cells [2] = assay: Transwell matrigel invasion, A875; type: cell-based; settings: transwell matrigel, 0, 5, 25 μM, 48 h
Method: For invasion assay, matrigel (Corning, New York, USA) was coated on the upper surface of the upper chamber. The upper chamber was filled with DMEM medium containing 2% FBS, while the lower chamber contained a medium supplemented with 20% FBS. In brief, melanoma cells (A375 GFP, A875 GFP, A375 PDPN^−/−, and A875 PDPN^+/+ cells) were seeded in the upper chamber of the transwell plate (Corning, New York, USA) at about 5 × 10^4 cells/well with the medium as described above. For peptide functionality experiments, A375 and A875 cells were seeded in the upper chamber of the transwell plate at a density of 5 × 10^4 cells/well with various peptide concentrations (0 μM, 5 μM, 25 μM). Transwell inserts were fixed using 4% paraformaldehyde after 48 h cell invasion, and crystalline violet was used for staining. The quantities of invading cells were quantified using ImageJ software (NIH).

A375 melanoma xenograft = assay: A375 subcutaneous xenograft, BALB/c nude mice; type: in vivo; settings: tail vein, every two days for 15 days
Method: Tumorigenesis assays were conducted in vivo using BALB/c nude mice and BALB/c mice from Guangdong Medical Laboratory Animal Center. The animal study was reviewed and approved by the Administrative Committee on Animal Research of Shenzhen International Graduate School, Tsinghua University (Ethical Development No. 16, 10 November 2021). Samples with 5 × 10^5 A375 or B16F10-Luc melanoma cells were diluted in 100 μL PBS and injected subcutaneously into 6- to 8-week-old female BALB/c nude mice or BALB/c mice. 5 days later, the mice were treated with CY12-RP2 by tail vein administration at various doses (25 mg/kg and 100 mg/kg) every two days. The tumor volume and body weight were measured every 2 days, with the calculation of the tumor volume under the assumption of an ellipsoidal tumor as: tumor volume = length × width^2/2. Tumors from BALB/c nude mice were collected and photographed on day 21, while tumors from the allograft mouse model were measured using bioluminescence imaging. The blood collected from the eyes of BALB/c nude mice were stored at 4 °C for 24 h and then centrifuged for 15 min under the indicated conditions (4 °C, 3000 rpm). The supernatant was collected and assayed for drug toxicity using kits, including AST, ALT, TG, and γ-GT. […]

[3] = system: B16F10-Luc lung metastasis; type: in vivo, BALB/c mice; settings: 25 and 100 mg/kg i.v. every two days, 15 days
Method: For pulmonary metastasis assays, 6- to 8-week-old female BALB/c mice were administered with 5 × 10^5 B16F10-Luc cells via tail vein to establish an experimental pulmonary metastasis model of melanoma. CY12-RP2 was administered to the mice intravenously at high and low doses (25 mg/kg and 100 mg/kg) every two days, and the mice were sacrificed after 15 days of treatment. Pulmonary metastases were evaluated using bioluminescence imaging on the 2nd, 5th, 10th, 15th and 20th day after B16F10-Luc cells injection. Subsequently, the BALB/c mice were sacrificed, and the organs including the heart, liver, spleen, lung, and kidney were collected and imaged for evaluation of micrometastases. The xenografts and organs were kept in a 4% paraformaldehyde solution for subsequent histological assays.

CC(C)C[C@H](NC(=O)[C@H](Cc1ccc(O)cc1)NC(=O)[C@@H](N)[C@@H](C)O)C(=O)N[C@@H](CS)C(=O)N[C@H](C(=O)N[C@@H](C)C(=O)N[C@@H](CS)C(=O)N[C@@H](CC(=O)O)C(=O)N[C@@H](Cc1ccc(O)cc1)C(=O)N[C@H](C(=O)N[C@@H](Cc1c[nH]cn1)C(=O)N[C@@H](Cc1c[nH]cn1)C(=O)O)[C@@H](C)O)[C@@H](C)O [CY12-RP2] (H-TYLCTACDYTHH-OH; N-terminus and C-terminus assumed)
apoptosis rate (A375 cells): significantly up-regulated by CY12-RP2 in a dose-dependent manner
apoptosis rate (A875 cells [1]): milder
invasion (A875 cells [2]): could only be inhibited at high concentrations
tumor growth (A375 melanoma xenograft; 25 mg/kg and 100 mg/kg, especially 100 mg/kg): significantly inhibited the tumor growth
mean body weight (A375 melanoma xenograft; nude mice, 25 and 100 mg/kg): no significant change
pulmonary metastases ([3]; bioluminescence, vs control): significantly fewer pulmonary metastases
size of nodules and frequency of metastases in the lungs ([3]; ex vivo organ bioluminescence): significant reduction
metastatic nodules in the lung ([3]; representative nodule images): significantly reduced
